Like-named read-outs stand apart in the source and are kept apart here.
Experiments:
wild-type HIV-1 = conditions: read-out: IC50 (50% inhibitory concentration), MT-4 cells, cited from earlier work
[1] = tested on: AZT-resistant strain derived from wild-type HIV-1; conditions: read-out: IC50 (50% inhibitory concentration); second passage of the AZT-resistant progeny, MT-4 cells; cited from earlier work
[2] = molecular target: HIV-1 protease, wild type, expressed as part of truncated HIV-1 polyprotein (Human immunodeficiency virus type 1 group M subtype B, UniProt P04585); type: cell-based
From the text: Plasmid pART-2 was digested with Bgl II and Eco RI to obtain a nucleotide sequence coding for a portion of the HIV-1 polyprotein (i.e., the HIV-1 protease protein, the HIV-1 reverse transcriptase protein and a portion of the HIV-1 integrase protein). The isolated 2.3 kb fragment was then inserted into the pTrcHisC plasmid (obtained from Invitrogen, San Diego, Calif.), which had previously been digested with the same restriction enzymes, to yield the plasmid pL124.23. The pL124.23 plasmid contains upstream sequences coding for a series of six histidine residues fused to a gene 10 segment, all of which are in frame with the inserted fragment. An enterokinase cleavage recognition site is also located between gene 10 and the truncated polyprotein. The inserted sequences, as well as the described upstream sequences are all under control of a T7 promoter. The T7 polymerase in the host cell (Top 10, Invitrogen) is inducible with IPTG.

Row | SMILES | IC50 (wild-type HIV-1; fourth passage of the wild-type progeny) [µM] | IC50 (wild-type HIV-1; passage 6 virus, tested at higher compound concentrations) [µM] | IC50 [1] [µM] | processing of the polyprotein by HIV protease [2]
1 | Nc1nc(=O)n([C@@H]2CS[C@H](CO)O2)cc1F [FTC] | > 50 | > 250 | > 50 | 
2 | CC(C)(C)NC(=O)[C@@H]1CN(Cc2cccnc2)CCN1C[C@@H](O)C[C@@H](Cc1ccccc1)C(=O)N[C@H]1c2ccccc2C[C@H]1O [L-735,524] |  |  |  | did not allow processing of the polyprotein

From patent publication US6063562A (priority 1995, dated 2000)
